Experimental data: patent publication US20250327791A1, “METHODS OF TREATMENT BASED ON PATIENT SPECIFIC CLINICAL TRIAL MODELS AND ASSOCIATED MODELS AND USES” (DUKE UNIVERSITY, priority 2017, published 2025)

Experiments:
[1] = tested on: CRC 119; assay: In vitro screening, ponatinib IC50 (cell viability); format: cell-based; settings: Homo sapiens, 72 hours after drug addition
Protocol: (§1) For in vitro screening, cell lines were cultured in DMEM+10% FBS+1% Penicillin/Streptomycin and plated in drug free medium. Ponatinib solubilized in DMSO was added to cell lines containing between 3000-6000 cells that had been incubated at 37° C. for 24 hours. Each cell line was exposed to seven different drug combinations between 1.6 nM and 25 μM. Five replicates were used for each drug concentration. 72 hours after drug addition cell viability assay and IC50 values were calculated for each cell line using GraphPad Prism software.
(§2) Reanalyzing the screen data, FIG. 6A identified axitinib 61, sunitinib 62, and dasatinib 63 as targeting similar pathways as ponatinib 64. […] Pre and post ponatinib treatment the major signaling pathways downstream of FGFR, FIG. 7C, not only show a decrease in STAT expression FIG. 8 in CRC119 81, CRC240 83, and CRC057 85 but an increase in p-AKT expression in CRC 119 86, CRC240 87, and CRC057 88. Expression of p-ERK increased in CRC240 89, and CRC057 82 as well.

[2] = tested on: CRC057; assay: as above; format: cell-based; settings: Homo sapiens, 72 hours after drug addition
Protocol: as §1, §2

[3] = tested on: CRC240; assay: as above; format: cell-based; settings: Homo sapiens, 72 hours after drug addition
Protocol: as §1, §2

[4] = tested on: CRC cell lines; assay: High-throughput drug screen, panel of patient-derived cell lines; format: cell-based; settings: Homo sapiens, in 4/6 cell lines, mined drug screen data, read-out: inhibits growth
Protocol: (§3) Unless otherwise noted all experiments were carried out using the following materials and methods which are here presented as examples and not limiting embodiments. All equivalent variants are contemplated as part of the presently disclosed subject matter. An Echo Acoustic Dispenser provided automated liquid handling for drug addition while cell plating was performed by a Thermo Fisher Well Mate and assays used a Clarioscan plate reader. The drugs assayed were stamped to the cell plates immediately prior to cell plating at a final concentration of 1 μM. The drug pre-coated plates were plated with 500-1000 cells/well. 72 hours after cell plating cell viabilities were assessed via a CellTiter-Glo Luminescent Cell Viability Assay.
In this embodiment matching cells lines 31 and PDXs are created 32. These can be developed as described in the Uronis and Kim papers previously incorporated by reference. Drugs may subsequently be screened using these cell lines 33 the results validated in vivo 34 and RNA-Seq and molecular analysis 35 used. As a non-limiting example, CRC057, CRC119, CRC240, CRC247 15-496, and 16-159 were derived from patient colorectal cancers. It should be understood by those of skill in the art that any suitable type of cancer sample may have been taken. High-throughput drug screens, including 119 FDA-approved drug compounds, were performed using the patient-derived cell lines. […]

[5] = tested on: organoid A; assay: Organoid cell viability / IC50; format: cell-based; settings: for IC50: organoid A
Protocol: (§4) In embodiments organoids were created by embedding single cells in Matrigel on ice and seeding the cells in 48 well plates. After the Matrigel was polymerized for 10 minutes at 37° C. basal culture medium was overlaid containing at least one of the optimized growth factor combinations in FIG. 19.
(§5) ATAC-Seq tests were run to determine which pathways were up and down regulated in the presence of various drugs. […] The effectiveness of oxaliplatin 230, an FGFR1 inhibitor 231, along with oxaliplatin and an FGFR1 inhibitor 234 as cell killers was tested in the organoid as shown in FIG. 23. […] The cell killing potential of oxaliplatin 241, an oxytocin antagonist 243, along with oxaliplatin and an oxytocin antagonist 245 was tested as shown in FIG. 24.

[6] = tested on: organoid B; assay: Organoid cell viability / IC50; format: cell-based
Protocol: as §4, §5

[7] = tested on: organoid C; assay: Organoid cell viability / IC50; format: cell-based
Protocol: as §4, §5

[8] = tested on: CRC119 organoid; assay: Organoid drug sensitivity assay (Cell Titer Glo); format: cell-based, human; settings: SN38 tested rather than irinotecan in organoids
Protocol: (§6) In embodiments, organoids are prepared by mincing a […] tissue sample into <2 mm^3 pieces. Samples are then digested in 5 mL of DMEMF-12+Penicillin Streptomycin+Rock inhibitor Y-27632 along with 20 μL of 0.25% Trypsin/EDTA for an hour with manual inversion every 10 minutes. After being spun down at 1500 RPM the pellet is washed with 5 mL of 10% FBS. During each of 3 washes the material is pipetted slowly about fifteen times. After each wash supernatant is collected and passed through a 70 μm cell strainer. Collected washes are spun down for five minutes at 1500 RPM and the pellet mixed with a 4:1 mixture of Matrigel®/PBS and plated. After the Matrigel® solidifies 1 mL of media is added to each well.
(§7) Collected matrigel is spun for 7 minutes at 1500 RPM. The pellet is collected and resuspended in 300 μL of PBS. 50 μL of this mixture is then mixed with 50 μL of a 1:1 mixture of matrigel/PBS. 5 μL of this mixture is then added to the center of each well in a 96 well plate and the plate incubated until the matrigel solidifies. […] After 90 μL of media is added and the plate is incubated at 37° C. for 24 hours, 5 μL of the tested drug is added to each well. Example concentrations, such as 100 nM, 1 μM and 10 μM concentrations, may be tested in triplicate. After the plate is incubated at 37° C. for 48 hours, 40 μL of Cell Titer Glo for organoids is added to each well to determine drug sensitivity.
(§8) In embodiments, patients undergo biopsy of metastatic cancer, CT of the chest, abdomen and pelvis. In embodiments, drug sensitivity is tested within 7-10 days (or 2-3 days) of obtaining tissue. In embodiments, FIG. 12, organoids are prepared from a PDX biopsy 121 by collecting and digesting cells 122, seeding the cells in a 24 well plate 123, after incubation seeding cells from the 24 well plate in a 96 well plate 124 and screening drugs 125. […] Sensitivity to oxaliplatin at 100 nM, 1 μM, and 10 μM was tested on 8 organoids, CRC057, CRC119, CRC240, CRC16-159, CRC17-608, CRC18-347, CRC247 and CRC18-266, created using the above procedure. […] SN38 (7-ethyl-10-hydroxycamptothecin) was tested, rather than irinotecan, in organoids since irinotecan undergoes deesterification to SN-38 in vivo but not in vitro.

[9] = tested on: CRC240 organoid; assay: Organoid drug sensitivity assay (Cell Titer Glo); format: cell-based, human; settings: SN38 tested rather than irinotecan in organoids
Protocol: as §6, §7, §8

[10] = tested on: CRC240 PDX; assay: PDX studies accompanying the organoid studies (tumor growth inhibition); format: in vivo, mice; settings: 10 mg/kg oxaliplatin or 20 mg/kg irinotecan weekly IP for three weeks
From the text: (§9) PDX studies accompanying the organoid studies were developed as described previously and in Uronis J M, Osada T, McCall S, Yang X Y, Mantyh C, Morse M A, et al. Histological and molecular evaluation of patient-derived colorectal cancer explants. PloS one 2012; 7:e38422, and Kim M K, Osada T, Barry W T, Yang X Y, Freedman J A, Tsamis K A, et al. Characterization of an oxaliplatin sensitivity predictor in a preclinical murine model of colorectal cancer. Molecular cancer therapeutics 2012; 11:1500-1509. Both of these references are hereby incorporated in their entirety. 6-8 week old NOD/SCID-beige mice were used and the tumors were measured twice a week as described above. Once tumors reached a size of 250 mm^3 mice were treated with either 10 mg/kg oxaliplatin or 20 mg/kg irinotecan weekly via IP (intraperitoneal injection) for three weeks with saline used as a control. PDX tumor sizes were recorded and one-way ANOVA analysis were carried out as described in the references above to determine TGI (tumor growth inhibition.
as §8

[11] = tested on: CRC119 PDX; assay: as above; format: in vivo, mice; settings: 10 mg/kg oxaliplatin or 20 mg/kg irinotecan weekly IP for three weeks
From the text: as §9, §8

[12] = tested on: CRC119; assay: High-throughput drug screen, CellTiter-Glo cell viability; format: cell-based, human; settings: CRC119 cell line; 1 μM; 72 hours
Protocol: as §3
(§10) In this embodiment matching cells lines 31 and PDXs are created 32. These can be developed as described in the Uronis and Kim papers previously incorporated by reference. Drugs may subsequently be screened using these cell lines 33 the results validated in vivo 34 and RNA-Seq and molecular analysis 35 used. As a non-limiting example, CRC057, CRC119, CRC240, CRC247 15-496, and 16-159 were derived from patient colorectal cancers. It should be understood by those of skill in the art that any suitable type of cancer sample may have been taken. High-throughput drug screens, including 119 FDA-approved drug compounds, were performed using the patient-derived cell lines. Any suitable type of high or low throughput drug screen of any FDA approved or non-FDA approved drug may be performed on the cell lines. […] 88%, 95%, 88, and 89% of CRC119 were killed by docetaxel 42, doxorubicin 41, and the vinca alkaloids vincristine and vinorelbine 43 respectively. 46%, 93%, 63% and 56% of CRC240 were killed by docetaxel 42, doxorubicin 41, and the vinca alkaloids vincristine and vinorelbine 43 respectively. 47% 83%, 46% and 46% of CRC057 were killed by docetaxel 42, doxorubicin 41, and the vinca alkaloids vincristine and vinorelbine 43 respectively. 25%, 70%, 37%, and 33% of CRC247 were killed by docetaxel 42, doxorubicin 41, and the vinca alkaloids vincristine and vinorelbine 43 respectively. […] CRC119 45 and 16-159 46 were sensitive to the standard of care cytotoxic chemotherapeutic agent irinotecan with 43% and 64% of cells killed respectively.

[13] = tested on: 16-159; assay: as above; format: cell-based, human; settings: 16-159 cell line; 1 μM; 72 hours
Protocol: as §3, §10

[14] = tested on: CRC247; assay: as above; format: cell-based, human; settings: CRC247 cell line; 1 μM; 72 hours
Protocol: as §3, §10

[15] = tested on: CRC057; assay: as above; format: cell-based, human; settings: CRC057 cell line; 1 μM; 72 hours
Protocol: as §3, §10

[16] = tested on: CRC240; assay: as above; format: cell-based, human; settings: CRC240 cell line; 1 μM; 72 hours
Protocol: as §3, §10

[17] = tested on: CRC16-159 organoid; assay: Organoid drug sensitivity assay (Cell Titer Glo); format: cell-based, human
Protocol: as §6, §7, §8

[18] = tested on: CRC057 organoid; assay: Organoid drug sensitivity assay (Cell Titer Glo); format: cell-based, human
Protocol: as §6, §7, §8

[19] = tested on: CRC18-347 organoid; assay: Organoid drug sensitivity assay (Cell Titer Glo); format: cell-based, human
Protocol: as §6, §7, §8

[20] = tested on: 18-347 PDX; assay: PDX studies accompanying the organoid studies (tumor growth inhibition); format: in vivo, mice; settings: 10 mg/kg oxaliplatin weekly IP for three weeks
From the text: as §9, §8

[21] = tested on: CRC057 PDX; assay: as above; format: in vivo, mice; settings: 10 mg/kg oxaliplatin weekly IP for three weeks
From the text: as §9, §8

[22] = tested on: CRC16-159 PDX; assay: as above; format: in vivo, mice; settings: 10 mg/kg oxaliplatin weekly IP for three weeks
From the text: as §9, §8

Row | Compound | IC50 [5] | IC50 [6] | IC50 [7] | cells killed [12] | cells killed [14] | cells killed [15] | cells killed [16] | further results
1 | Cc1ccc(C(=O)Nc2ccc(CN3CCN(C)CC3)c(C(F)(F)F)c2)cc1C#Cc1cnc2cccnn12 [ponatinib] |  |  |  |  |  |  |  | IC50 [1]: 1100 nM; IC50 [2]: 700 nM; IC50 [3]: 1100 nM; inhibition at 1 µM [4]: ≥ 50%
2 | O=c1[nH]cc(F)c(=O)[nH]1 [fluorouracil] | 3960 nM | 37 nM | 125 nM |  |  |  |  | 
3 | CCc1c2c(nc3ccc(O)cc13)-c1cc3c(c(=O)n1C2)COC(=O)[C@]3(O)CC [SN38, 7-ethyl-10-hydroxycamptothecin] | 11.6 nM | 43900 nM | 32.6 nM |  |  |  |  | 
4 | CCc1c2c(nc3ccc(OC(=O)N4CCC(N5CCCCC5)CC4)cc13)-c1cc3c(c(=O)n1C2)COC(=O)[C@]3(O)CC [irinotecan] |  |  |  | 43% |  |  |  | organoid sensitivity [8]: sensitive; organoid sensitivity [9]: sensitive; PDX sensitivity [10]: sensitive; PDX sensitivity [11]: sensitive; cells killed [13]: 64%
5 | CC[C@]1(O)C[C@H]2CN(CCc3c([nH]c4ccccc34)[C@@](C(=O)OC)(c3cc4c(cc3OC)N(C=O)[C@H]3[C@@](O)(C(=O)OC)[C@H](OC(C)=O)[C@]5(CC)C=CCN6CC[C@]43[C@@H]65)C2)C1 [vincristine] |  |  |  | 88% | 37% | 46% | 63% | 
6 | CCC1=C[C@@H]2CN(C1)Cc1c([nH]c3ccccc13)[C@@](C(=O)OC)(c1cc3c(cc1OC)N(C)[C@H]1[C@@](O)(C(=O)OC)[C@H](OC(C)=O)[C@]4(CC)C=CCN5CC[C@]31[C@@H]54)C2 [vinorelbine] |  |  |  | 89% | 33% | 46% | 56% | 
7 | COc1cccc2c1C(=O)c1c(O)c3c(c(O)c1C2=O)C[C@@](O)(C(=O)CO)C[C@@H]3O[C@H]1C[C@H](N)[C@H](O)[C@H](C)O1 [doxorubicin] |  |  |  | 95% | 70% | 83% | 93% | 
8 | CC(=O)O[C@@]12CO[C@@H]1C[C@H](O)[C@@]1(C)C(=O)[C@H](O)C3=C(C)[C@@H](OC(=O)[C@H](O)[C@@H](NC(=O)OC(C)(C)C)c4ccccc4)C[C@@](O)([C@@H](OC(=O)c4ccccc4)[C@H]21)C3(C)C [docetaxel] |  |  |  | 88% | 25% | 47% | 46% | 
9 | O=C1[O][Pt]2([NH][C@@H]3CCCC[C@H]3[NH]2)[O]C1=O [oxaliplatin] | 128000 nM | 7010 nM | 21700 nM |  |  | 46% |  | organoid sensitivity [17]: resistant; organoid sensitivity [18]: sensitive; killing ([18]; 1 μM): > 50%; organoid sensitivity [8]: resistant; organoid sensitivity [9]: resistant; organoid sensitivity ([19]; 18-347 organoid): sensitive; killing ([19]; CRC18-347 organoid, 1 μM): > 50%; PDX sensitivity [20]: sensitive; PDX sensitivity [21]: sensitive; PDX sensitivity [10]: resistant; PDX sensitivity [11]: resistant; PDX sensitivity [22]: resistant; organoid sensitivity ([5]; Organoid A, from the IC50 data): resistant
